From PMC5908784, “Extracellular loops 2 and 3 of the calcitonin receptor selectively modify agonist binding and efficacy” (Biochemical Pharmacology, 2018)
Changes are numbered by the printed parent chain. Where a SMILES comes first, the peptide text is derived from it. Bridges are numbered along the chain shown (N, C = ends).

Legend:
Assay in all cases: cAMP accumulation
Format in all cases: cell-based
Conditions in all cases: mean ± S.E.M.; for Emax: cAMP maximal response, SEM; for EC50: cAMP, CV1-FlpIn cells, 30 min, IBMX
[1] = biological target: T1, hCTR M367A (Homo sapiens, UniProt P30988, M367A)
T1 construct: c-Myc (N); expressed in transfected cells
T1 sequence (P30988 25-474 M367A): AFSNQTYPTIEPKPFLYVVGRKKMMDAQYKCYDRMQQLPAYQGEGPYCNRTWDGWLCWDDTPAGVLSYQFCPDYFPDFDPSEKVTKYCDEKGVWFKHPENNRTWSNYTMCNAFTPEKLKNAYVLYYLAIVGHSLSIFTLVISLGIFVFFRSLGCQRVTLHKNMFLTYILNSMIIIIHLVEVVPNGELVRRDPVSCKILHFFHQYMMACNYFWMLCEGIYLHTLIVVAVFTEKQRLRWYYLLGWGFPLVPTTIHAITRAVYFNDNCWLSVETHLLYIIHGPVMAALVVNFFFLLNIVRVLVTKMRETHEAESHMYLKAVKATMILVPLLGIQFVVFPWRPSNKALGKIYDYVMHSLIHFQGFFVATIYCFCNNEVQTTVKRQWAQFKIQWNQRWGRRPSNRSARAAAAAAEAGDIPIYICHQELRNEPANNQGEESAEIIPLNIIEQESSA
Description: (§1) Cells (2.5 × 10^4 cells/well) were seeded into 96-well plates and incubated overnight. Cells were stimulated with increasing concentrations of ligands for 30 min in the presence of IBMX. The liquid was discarded, changed to absolute ethanol and volatilized to dryness at room temperature. […] Data were normalized to the response of 100 μM forskolin.
(§2) Data were corrected for radioligand occupancy using the Cheng-Prusoff equation in Prism; as such data are reported as pKi. Emax and EC50 were estimated from concentration-response curves using with a 3-parameter logistic equation in Prism (v7). These values are a composite of functional affinity, efficacy and stimulus response coupling. […] Significance was accepted at P < 0.05.

[2] = biological target: T2, hCTR L297A (Homo sapiens, UniProt P30988, L297A)
T2 construct: c-Myc (N); expressed in transfected cells
T2 sequence (P30988 25-474 L297A): T1 sequence (P30988 25-474 M367A) with L273A, A343M
Description: as §1, §2

[3] = biological target: T3, hCTR I300A (Homo sapiens, UniProt P30988, I300A)
T3 construct: c-Myc (N); expressed in transfected cells
T3 sequence (P30988 25-474 I300A): T1 sequence (P30988 25-474 M367A) with I276A, A343M
Description: as §1, §2

[4] = biological target: T4, hCTR N286A (Homo sapiens, UniProt P30988, N286A)
T4 construct: c-Myc (N); expressed in transfected cells
T4 sequence (P30988 25-474 N286A): T1 sequence (P30988 25-474 M367A) with N262A, A343M
Description: as §1, §2

[5] = biological target: T5, hCTR L298A (Homo sapiens, UniProt P30988, L298A)
T5 construct: c-Myc (N); expressed in transfected cells
T5 sequence (P30988 25-474 L298A): T1 sequence (P30988 25-474 M367A) with L274A, A343M
Description: as §1, §2

## CC(C)C[C@H](NC(=O)[C@H](CC(N)=O)NC(=O)[C@H](CC(N)=O)NC(=O)[C@H](CO)NC(=O)[C@H](CO)NC(=O)[C@H](CCCNC(=N)N)NC(=O)[C@@H](NC(=O)[C@H](CC(C)C)NC(=O)[C@H](Cc1ccccc1)NC(=O)[C@H](CC(N)=O)NC(=O)[C@H](C)NC(=O)[C@H](CC(C)C)NC(=O)[C@H](CCCNC(=N)N)NC(=O)[C@H](CCC(N)=O)NC(=O)[C@@H](NC(=O)[C@H](C)NC(=O)[C@@H]1CSSC[C@H](NC(=O)[C@@H](N)CCCCN)C(=O)N[C@@H](CC(N)=O)C(=O)N[C@@H]([C@@H](C)O)C(=O)N[C@@H](C)C(=O)N[C@@H]([C@@H](C)O)C(=O)N1)[C@@H](C)O)C(C)C)C(=O)NCC(=O)N1CCC[C@H]1C(=O)N[C@H](C(=O)N[C@@H](CC(C)C)C(=O)N1CCC[C@H]1C(=O)N1CCC[C@H]1C(=O)N[C@H](C(=O)N[C@@H](CC(N)=O)C(=O)N[C@H](C(=O)NCC(=O)N[C@@H](CO)C(=O)N[C@@H](CC(N)=O)C(=O)N[C@H](C(=O)N[C@@H](Cc1ccc(O)cc1)C(N)=O)[C@@H](C)O)C(C)C)[C@@H](C)O)C(C)C [rAmy]
[1]
  Emax: 93 ± 8%
[2]
  Emax: 85 ± 10%
[3]
  Emax: 109 ± 10%
[4]
  Emax: 97 ± 15%
[5]
  Emax: 117 ± 13%

## CC[C@H](C)[C@H](NC(=O)[C@H](C)NC(=O)[C@@H](NC(=O)[C@H](CCC(N)=O)NC(=O)[C@@H]1CCCN1C(=O)[C@H](Cc1ccccc1)NC(=O)[C@@H](NC(=O)[C@H](Cc1c[nH]cn1)NC(=O)[C@H](Cc1ccccc1)NC(=O)[C@H](CCCCN)NC(=O)[C@H](CC(N)=O)NC(=O)[C@H](Cc1ccccc1)NC(=O)[C@H](CC(=O)O)NC(=O)[C@H](CCC(N)=O)NC(=O)[C@@H](NC(=O)[C@H](Cc1ccc(O)cc1)NC(=O)[C@@H](NC(=O)CNC(=O)[C@H](CC(C)C)NC(=O)[C@H](CCSC)NC(=O)[C@@H]1CSSC[C@H](N)C(=O)NCC(=O)N[C@@H](CC(N)=O)C(=O)N[C@@H](CC(C)C)C(=O)N[C@@H](CO)C(=O)N[C@@H]([C@@H](C)O)C(=O)N1)[C@@H](C)O)[C@@H](C)O)[C@@H](C)O)[C@@H](C)O)C(=O)NCC(=O)N[C@H](C(=O)NCC(=O)N[C@@H](C)C(=O)N1CCC[C@H]1C(N)=O)C(C)C [hCT]
[1]
  Emax: 82 ± 4%
[2]
  Emax: 91 ± 6%
[3]
  Emax: 116 ± 6%
[4]
  Emax: 126 ± 6%
[5]
  Emax: 103 ± 6%

## CC(C)C[C@H](NC(=O)CNC(=O)[C@H](C)NC(=O)[C@H](CC(C)C)NC(=O)[C@H](CCCNC(=N)N)NC(=O)[C@H](Cc1cnc[nH]1)NC(=O)[C@@H](NC(=O)[C@@H](NC(=O)[C@@H]1CSSC[C@H](NC(=O)[C@H](C)N)C(=O)N[C@@H](CC(=O)O)C(=O)N[C@@H]([C@@H](C)O)C(=O)N[C@@H](C)C(=O)N[C@@H]([C@@H](C)O)C(=O)N1)C(C)C)[C@@H](C)O)C(=O)N[C@@H](CC(C)C)C(=O)N[C@@H](CO)C(=O)N[C@@H](CCCNC(=N)N)C(=O)N[C@@H](CO)C(=O)NCC(=O)NCC(=O)N[C@H](C(=O)N[C@H](C(=O)N[C@@H](CCCCN)C(=O)N[C@@H](CC(N)=O)C(=O)N[C@@H](CC(N)=O)C(=O)N[C@@H](Cc1ccccc1)C(=O)N[C@H](C(=O)N1CCC[C@H]1C(=O)N[C@H](C(=O)N[C@@H](CC(N)=O)C(=O)N[C@H](C(=O)NCC(=O)N[C@@H](CO)C(=O)N[C@@H](CCCCN)C(=O)N[C@@H](C)C(=O)N[C@@H](Cc1ccccc1)C(N)=O)C(C)C)[C@@H](C)O)C(C)C)C(C)C)C(C)C [hαCGRP]
[1]
  Emax: […]
  EC50: […]
[2]
  Emax: 88 ± 14%
  EC50: 36.3 nM
[3]
  Emax: 73 ± 14%
  EC50: 19.5 nM
[4]
  Emax: 46 ± 16%
  EC50: 14.1 nM
[5]
  Emax: 109 ± 17%
  EC50: 33.9 nM

## CC(C)C[C@H](NC(=O)[C@H](CCCCN)NC(=O)CNC(=O)[C@H](CC(C)C)NC(=O)[C@@H](NC(=O)[C@@H]1CSSC[C@H](N)C(=O)N[C@@H](CO)C(=O)N[C@@H](CC(N)=O)C(=O)N[C@@H](CC(C)C)C(=O)N[C@@H](CO)C(=O)N[C@@H]([C@@H](C)O)C(=O)N1)C(C)C)C(=O)N[C@@H](CO)C(=O)N[C@@H](CCC(N)=O)C(=O)N[C@@H](CCC(=O)O)C(=O)N[C@@H](CC(C)C)C(=O)N[C@@H](Cc1c[nH]cn1)C(=O)N[C@@H](CCCCN)C(=O)N[C@@H](CC(C)C)C(=O)N[C@@H](CCC(N)=O)C(=O)N[C@H](C(=O)N[C@@H](Cc1ccc(O)cc1)C(=O)N1CCC[C@H]1C(=O)N[C@@H](CCCNC(=N)N)C(=O)N[C@H](C(=O)N[C@@H](CC(N)=O)C(=O)N[C@H](C(=O)NCC(=O)N[C@@H](CO)C(=O)NCC(=O)N[C@H](C(=O)N1CCC[C@H]1C(N)=O)[C@@H](C)O)[C@@H](C)O)[C@@H](C)O)[C@@H](C)O [sCT]
[1]
  Emax: 79 ± 3%
[2]
  Emax: 103 ± 12%
[3]
  Emax: 113 ± 11%
[4]
  Emax: 103 ± 6%
[5]
  Emax: 112 ± 9%

## CSCC[C@H](NC(=O)CNC(=O)[C@H](CO)NC(=O)[C@H](Cc1ccccc1)NC(=O)[C@H](CCCNC(=N)N)NC(=O)[C@H](Cc1c[nH]cn1)NC(=O)[C@H](Cc1ccccc1)NC(=O)[C@H](CC(N)=O)NC(=O)[C@H](CC(N)=O)NC(=O)[C@H](CC(C)C)NC(=O)[C@H](CC(N)=O)NC(=O)[C@H](CCCNC(=N)N)NC(=O)[C@H](Cc1c[nH]c2ccccc12)NC(=O)[C@H](Cc1ccc(O)cc1)NC(=O)[C@H](C)NC(=O)[C@H](CO)NC(=O)[C@H](CC(C)C)NC(=O)[C@@H](NC(=O)[C@@H]1CSSC[C@H](N)C(=O)N[C@@H](CO)C(=O)N[C@@H](CC(N)=O)C(=O)N[C@@H](CC(C)C)C(=O)N[C@@H](CO)C(=O)N[C@@H]([C@@H](C)O)C(=O)N1)C(C)C)C(=O)NCC(=O)N[C@@H](Cc1ccccc1)C(=O)NCC(=O)N1CCC[C@H]1C(=O)N[C@@H](CCC(=O)O)C(=O)N[C@H](C(=O)N1CCC[C@H]1C(N)=O)[C@@H](C)O [pCT] (H-CSNLSTCVLSAYWRNLNNFHRFSGMGFGPETP-NH2; disulfide 1-7)
[1]
  Emax: 73 ± 13%
  EC50: 0.0158 nM
[2]
  Emax: 127 ± 8%
  EC50: 0.1 ± 0.002 nM
[3]
  Emax: 117 ± 11%
  EC50: 0.0501 nM
[4]
  Emax: 84 ± 6%
  EC50: 0.2 nM
[5]
  Emax: 118 ± 7%
  EC50: 0.0631 nM
